Common to all, as to format: in vitro ADME
Data set [1] in a line: Caco-2 permeability assay. To be noted: human, Caco-2, pH 7.4; for efflux ratio at 2 h, 10 μM: B-A/A-B; for Papp B→A at 2 h, 10 μM: basolateral to apical, pH7.4. Here is the method: Caco2 permeability data provides a measure of a compound's permeability, and its potential for efflux by P-glycoprotein. […] This assay therefore provides an indication of which compounds are likely to be suitable for oral administration.
Caco-2 cells were purchased from ATCC and passaged to create a bank of cells. Cells were not used post 20 passages.
All test and reference compounds (metoprolol (passive permeability) and atenolol (pgp substrate)) were formulated in DMSO to 20 mM.
96-well plates were seeded with 9×10^3 Caco-2 cells/well in DMEM, 10% FBS, 1% NEAA, 1% pen/strep and maintained at 37° C., in a highly humidified atmosphere of 95% air and 5% CO2. Plates were ready for use on day 21.
10 mM DMSO stock test compounds were diluted to 1 mM in DMSO. Two replicates of each test compound were included in every assay. Final concentration of donor solution was 10 μM.
Assay transport buffer (25 mM HEPES/Hanks Balanced Salt Solution (HBSS), pH7.4) was prepared to wash the cells, create lucifer yellow (LY) stock solutions, receiver solutions and blanks for the transport assay. Final concentration of LY was 10 μM. Basolateral wells were treated with 250 μL of 10 μM dosing drug solution or 250 μL Transport Buffer. Apical wells were treated with 75 μL drug dosing solution or 75 μL Transport Buffer. The two plates were sandwiched together and cells were incubated with test compounds for 2 hours, shaking at 50 rpm, 37° C., 0% CO2.
A calibration curve was prepared for each compound; DMSO stock solutions were serially diluted from 300 μM to 100 μM, 30 μM, 10 μM, 3 μM, 1 μM and 0.3 μM in DMSO. 2 μL of each concentration was diluted into 198 μL of Sample Quench Solution (50% acetonitrile containing 500 nM tolbutamide). 50 μL of each calibration solution was then diluted in 50 μL Dosing Buffer (modified HBSS containing LY). Finally this plate was diluted 1:10 using a Janus robot in Robot Dilution Quench Solution (35% acetonitrile containing 250 nM tolbutamide).
Following a 2 h incubation, 50 μL of sample was removed from each well (apical and basolateral) and added to the T2 sample plate. Lucifer Yellow fluorescence was analysed using Spectrafluor Plus featuring the XFluor software to determine membrane integrity.
Following the fluorescence plate read, 50 μL Sample Quench Solution was then added to the T2 sample plate. Plates were diluted 1:10 and/or 1:100 into opaque 384-well plates using a Janus Robot. 1:100 dilution transfers were created sequentially directly from 1:10 dilutions. All dilutions were created using Robot Dilution Quench Solution (35% acetonitrile containing 250 nM tolbutamide). All samples were analysed by LC-MS/MS.
In general terms: Caco-2 cells form a polarised layer with tight junctions and transporters.

Data set [2] concerns Cryopreserved hepatocytes (human). The experiment in a line: Hepatic stability (cryopreserved hepatocytes). To be noted: 1 μM.
Protocol: Cryopreserved hepatocytes (human) were obtained from Bioreclamation.
Test compounds and reference controls (raloxifene, diclofenac, terenadine, propranolol, dextromethorphan and metoprolol) were dissolved in a 100 μM stock was prepared by diluting 5 μL of 4 mM (DMSO) in 195 μL of 50:50 DMSO:hepatocyte buffer. Final test compound concentration in incubation was 1 μM.
The hepatocyte buffer was prepared (Williams E media containing phenol red and Glutamax™, 15 mM HEPES, warmed to 37° C., pH7.4 with NaOH). Hepatocyte cells (all main species) were removed from liquid nitrogen, thawed in a waterbath, decanted into 50 mL of pre-warmed Cryopreserved Hepatocyte Recovery Media (LifeTechnologies) and centrifuged. Supernatant fraction was removed, cells were re-suspended in hepatocyte buffer and counted by trypan blue exclusion. Cell viability of >80% was required for all assays.
2 μL of 100 μM compound stock solution was added to relevant wells to initiate the incubation. A no cell control and two replicates of each test compound was included in every assay. Cells were incubated at 37° C., on a shaker set at 300 rpm. […] Samples were diluted 1:1 with water using the Janus Robot and analysed by LC-MS/MS.
The nature of data set [3]: Microsomal stability. To be noted: human microsomes 0.5 mg/mL; 1 μM; 1 mM NADPH. As for the experimental part:
Microsomes (human) were obtained from Bioreclamation.
All Test and reference control compounds (raloxifene, diclofenac, terfenadine, propranolol, dextromethorphan and metoprolol) were dissolved to create a 100 μM stock (final concentrations; 91.5% Acetonitrile: 8.5% DMSO). Final test compound concentration in incubation was 1 μM (<0.1% DMSO).
Solution 1: 17.4 g potassium phosphate dibasic anhydrous (K2HPO4, 0.1 M) dissolved in 1 L deionised water. Solution 2: 13.6 g potassium phosphate monobasic anhydrous (KH2PO4, 0.1 M) dissolved in 1 L deionised water. pH7.4 with 2 mM magnesium chloride. NADPH (10 mM) is prepared in deionised water.
Microsomes (all species) were removed from the −80° C. thawed at 37° C. Microsomes were diluted in assay buffer to achieve a final protein concentration of 0.5 mg/mL and 1 mM NADPH.
The following procedure was completed on a Perkin Elmer Janus robotic platform in 96 well format: The microsomal incubation plate was transferred to a heater shaker at 300 rpm and solution heated to 37° C. for 10 min pre-warm. A no co-factor control at 0 and 45 min and one replicates of each test compound was included in every assay. Microsomes were incubated at 37° C., on a shaker set at 300 rpm throughout the assay. […] Samples were diluted 1:1 with water using the Janus Robot and analysed by […]

The nature of data set [4]: Parallel artificial membrane permeability assay (PAMPA). To be noted: 200 μM, 16 hours. As for the experimental part: Parallel artificial membrane permeability assay (PAMPA) permeability data is a useful tool to predict passive permeability through biological lipid membranes. […] Passive permeability (>0.1 and <10×10^−6 cm/s) may still give good absorption properties.
All Test compounds were formulated in DMSO to 20 mM. Final concentration of all compounds in the assay was 200 μM with final DMSO concentration of 1%. The following reference controls were used: Antipyrine, Carbamazepine, Propranolol, Ranitidine and Ketoprofen.
The solutions were filtered and 150 μL transferred to a High Sensitivity 96 well UV plate. This was analysed by UV as the reference plate. A 200 μL sample of the 200 μM solution was transferred to the ‘donor’ plate of the PAMPA plon sandwich plate system. […] Donor and acceptor plates were sandwiched and kept in a humid environment at room temperature for 16 hours. On completion of the incubation the donor and acceptor plates were separated. 150 μL of solution was transferred from each of the donor and acceptor PAMPA sandwich plates into High Sensitivity 96 well UV plates for analysis by UV. Passive permeability (Pe 10^−6 cm/second) was determined for each compound tested. Control compounds were compared with historic and literature values to ensure assay functionality.
For orientation: In PAMPA a lipid-coated filter parts donor from acceptor wells.

In general, efflux ratio refers to a quotient of directional permeabilities that is used to spot active efflux. The Papp B→A is how fast a substance crosses the layer from the basolateral side.

As to `CC(C)(CO)c1cc(F)c(CC(=O)Nc2ccnc(C(=O)NC3(C(F)(F)F)CC3)c2)cc1O` [Example 2.6, 4-[[2-[2-Fluoro-5-hydroxy-4-(2-hydroxy-1,1-dimethyl-ethyl)phenyl]acetyl]amino]-N-[1-(trifluoromethyl)cyclopropyl]pyridine-2-carboxamide], in data set [1], the efflux ratio at 2 h, 10 μM is 2.4 and the apparent permeability from basolateral to apical (Papp B→A) at 2 h, 10 μM was 5.3 ×10⁻⁶ cm/s.

In the case of `CC(C)(CCO)c1cc(F)c(CC(=O)Nc2ccnc(C(=O)NC3(C(F)(F)F)CC3)c2)cc1O` [Example 11, 4-[[2-[2-Fluoro-5-hydroxy-4-(3-hydroxy-1,1-dimethyl-propyl)phenyl]acetyl]amino]-N-[1-(trifluoromethyl)cyclopropyl]pyridine-2-carboxamide], in data set [1], the efflux ratio at 2 h, 10 μM is 2.3 and the Papp B→A at 2 h, 10 μM was 5.5 ×10⁻⁶ cm/s.

For `CC(C)(CO)c1cc(Cl)c(CC(=O)Nc2ccnc(C(=O)NC3(C(F)F)CC3)c2)cc1O` [Example 15.3, 4-[[2-[2-Chloro-5-hydroxy-4-(2-hydroxy-1,1-dimethyl-ethyl)phenyl]acetyl]amino]-N-[1-(difluoromethyl)cyclopropyl]pyridine-2-carboxamide], in data set [1], the efflux ratio at 2 h, 10 μM was 19.8 and the Papp B→A at 2 h, 10 μM was determined as 7.2 ×10⁻⁶ cm/s.

Regarding `O=C(Cc1cc(O)c(C(CO)C(F)(F)F)cc1F)Nc1ccnc(C(=O)NC2(C(F)(F)F)CC2)c1` (centres unmarked) [Example 17, 4-[[2-[2-Fluoro-5-hydroxy-4-[2,2,2-trifluoro-1-(hydroxymethyl)ethyl]phenyl]acetyl]amino]N-[1-(trifluoromethyl)cyclopropyl]pyridine-2-carboxamide], in data set [1], the efflux ratio at 2 h, 10 μM came out at 20.7 and the apparent permeability from basolateral to apical (Papp B→A) at 2 h, 10 μM worked out at 7.8 ×10⁻⁶ cm/s.

In the case of `Cc1cc(C(C)(C)CO)c(O)cc1CC(=O)Nc1ccnc(C(=O)NC2(C(F)(F)F)CC2)c1` [Example 14.1, 4-[[2-[5-Hydroxy-4-(2-hydroxy-1,1-dimethyl-ethyl)-2-methyl-phenyl]acetyl]amino]-N-[1-(trifluoromethyl)cyclopropyl]pyridine-2-carboxamide], in data set [1], the efflux ratio at 2 h, 10 μM was 2.8 and the Papp B→A at 2 h, 10 μM was 6 ×10⁻⁶ cm/s.

In the case of `CC(C)(C#N)NC(=O)c1cc(NC(=O)Cc2ccc(C(C)(C)C)c(O)c2)ccn1` [93.4 of PCT/GB2019/050209, reference compound], in data set [2], the “Human Hepatocyte CIint” value worked out at 24.1 μL/min/million cells. The “Human Microsome CIint” value in data set [3] is 32.8 µL/min/mg. Further, the “PAMPA Pe (pH 5.0)” value in data set [4] (pH 5.0) was 30.9 ×10^−4 cm/s. In addition, in data set [4] (pH 6.2), the “PAMPA Pe (pH 6.2)” value is recorded as 38.4 ×10^−4 cm/s. In addition, the “PAMPA Pe (pH 7.4)” value in data set [4] (pH 7.4) is recorded as 36.4 ×10^−4 cm/s.

`CC(C#N)NC(=O)c1cc(NC(=O)Cc2cc(O)c(C(C)(C)C)cc2F)ccn1` (centres unmarked) [Example 1.3]: in data set [1], the efflux ratio at 2 h, 10 μM worked out at 0.9 and the Papp B→A at 2 h, 10 μM is 2.5 ×10⁻⁶ cm/s.

As to `CC(C)(O)c1cc(F)c(CC(=O)Nc2ccnc(C(=O)NC3(C(F)(F)F)CC3)c2)cc1O` [Example 2, 4-[[2-[2-Fluoro-5-hydroxy-4-(1-hydroxy-1-methyl-ethyl)phenyl]acetyl]amino]-N-[1-(trifluoromethyl)cyclopropyl]pyridine-2-carboxamide], in data set [1], the efflux ratio at 2 h, 10 μM was determined as 1.8 and the Papp B→A at 2 h, 10 μM turned out to be 5.7 ×10⁻⁶ cm/s.

For the compound `CC(C)(CO)c1cc(Cl)c(CC(=O)Nc2ccnc(C(=O)NC3(C(F)(F)F)CC3)c2)cc1O` [Example 14, 4-[[2-[2-Chloro-5-hydroxy-4-(2-hydroxy-1,1-dimethyl-ethyl)phenyl]acetyl]amino]-N-[1-(trifluoromethyl)cyclopropyl]pyridine-2-carboxamide], in data set [1], the efflux ratio at 2 h, 10 μM is 2.8 and the Papp B→A at 2 h, 10 μM came out at 4.9 ×10⁻⁶ cm/s.

Regarding `CCC(C)(O)c1cc(F)c(CC(=O)Nc2ccnc(C(=O)NC3(C(F)(F)F)CC3)c2)cc1O` (centres unmarked) [Example 2.11, 4-[[2-[2-Fluoro-5-hydroxy-4-(1-hydroxy-1-methyl-propyl)phenyl]acetyl]amino]-N-[1-(trifluoromethyl)cyclopropyl]pyridine-2-carboxamide], in data set [1], the efflux ratio at 2 h, 10 μM was 1.

With `CC(C)(C)NC(=O)c1cc(NC(=O)Cc2cc(O)c(C(C)(C)C)cc2F)ccn1` [91 of PCT/GB2019/050209, reference compound], the “Human Hepatocyte CIint” value in data set [2] was 15.6 μL/min/million cells. Further, in data set [3], the “Human Microsome CIint” value was 51.0 µL/min/mg.

As to `O=C(Cc1cc(O)c(C2(CO)CCC2)cc1F)Nc1ccnc(C(=O)NC2(C(F)(F)F)CC2)c1` [Example 2.13, 4-[[2-[2-Fluoro-5-hydroxy-4-[1-(hydroxymethyl)cyclobutyl]phenyl]acetyl]amino]-N-[1-(trifluoromethyl)cyclopropyl]pyridine-2-carboxamide], in data set [1], the efflux ratio at 2 h, 10 μM turned out to be 2.6 and the Papp B→A at 2 h, 10 μM is 6.1 ×10⁻⁶ cm/s.

The record behind these values is patent publication US20220235006A1, “PYRIDINE DERIVATIVES AS TMEM16A MODULATORS FOR USE IN THE TREATMENT OF RESPIRATORY CONDITIONS” (TMEM16A LIMITED, priority 2019, published 2022).
